# Experimental data taken from ChEMBL document CHEMBL4476888, “Tosylacetate based compounds and derivatives thereof as phgdh inhibitors” (2018).
# Target: T1, D-3-phosphoglycerate dehydrogenase (Homo sapiens, UniProt O43175)
# T1 sequence (O43175 whole entry): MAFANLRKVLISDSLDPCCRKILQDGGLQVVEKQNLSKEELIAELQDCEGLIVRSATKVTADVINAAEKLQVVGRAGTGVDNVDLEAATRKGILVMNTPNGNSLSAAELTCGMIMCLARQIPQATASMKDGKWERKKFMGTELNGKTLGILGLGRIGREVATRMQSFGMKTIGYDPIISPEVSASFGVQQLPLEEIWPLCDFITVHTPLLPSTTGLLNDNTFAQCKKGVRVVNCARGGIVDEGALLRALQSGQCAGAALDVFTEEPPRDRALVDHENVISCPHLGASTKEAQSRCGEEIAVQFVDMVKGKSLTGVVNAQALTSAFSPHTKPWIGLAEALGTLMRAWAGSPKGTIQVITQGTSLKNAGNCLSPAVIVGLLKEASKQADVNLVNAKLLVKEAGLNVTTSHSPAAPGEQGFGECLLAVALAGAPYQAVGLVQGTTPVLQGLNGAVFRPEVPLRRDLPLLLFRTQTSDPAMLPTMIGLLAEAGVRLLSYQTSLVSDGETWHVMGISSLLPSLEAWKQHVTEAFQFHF
# Experiment: Inhibition of N-terminal HIS-tagged and TEV cleavage site containing full length PHGDH (unknown origin) expressed in Escherichia coli assessed as reduction in conversion of 3-Phosphoglycerate and NAD to 3-Phosphohydroxypyruvate and NADH using 250 uM NAD and 500 uM 3-PG incubated for 240 mins by fluorescence based assay
row,SMILES,IC50 [nM]
1,Cc1cc(Cl)c2cc(C(=O)N[C@H](C)c3ccc(S(=O)(=O)CC(=O)OCCNC(=O)OC(C)(C)C)cc3)n(C)c2c1,701
2,Cc1cc(Cl)c2cc(C(=O)N[C@H](CO)c3ccc(S(=O)(=O)CC(=O)OCC4(F)COC4)cc3)n(C)c2c1,27
3,COC(=O)CS(=O)(=O)c1ccc([C@@H](C)NC(=O)c2cc3c(Cl)cc(C)cc3n2C)nc1,1130
4,Cc1cc2c(cc(C(=O)N[C@@H](C)c3ccc(S(=O)(=O)CC(=O)O)cc3)n2C)c(Cl)c1Cl,155
5,COCCOC(=O)CS(=O)(=O)c1ccc([C@@H](CO)NC(=O)c2cc3c(Cl)cc(C)cc3n2C)cc1,62
6,Cc1cc(Cl)c2cc(C(=O)N[C@H](C)c3ccc(S(=O)(=O)C(C)(C)C(=O)OC(C)(C)C)cc3)n(C)c2c1,5050
